ChEMBL document CHEMBL1127612, “Maleimidoethyl 3-(tri-n-butylstannyl)hippurate: a useful radioiodination reagent for protein radiopharmaceuticals to enhance target selective radioactivity localization” (J Med Chem, 1994)

Experiments:
Conditions in all cases: in vivo
Mus musculus [1] = test: Tested for biodistribution of radioactivity after 1 hr of intravenous injection in mice blood; type: ADME, organism-based
Mus musculus [2] = test: Tested for biodistribution of radioactivity after 3h of intravenous injection in mice blood; type: ADME, organism-based
Mus musculus [3] = test: Tested for biodistribution of radioactivity after 48 hr of intravenous injection in mice blood; type: ADME, organism-based
Mus musculus [4] = test: Tested for biodistribution of radioactivity after 6 hr of intravenous injection in mice blood; type: ADME, organism-based
Mus musculus [5] = test: Tested for biodistribution of radioactivity after 72 hr of intravenous injection in mice blood; type: ADME, organism-based
Mus musculus [6] = test: Tested for biodistribution of radioactivity after 48 hr of intravenous injection in mice stomach; type: ADME, organism-based
Mus musculus [7] = test: Tested for biodistribution of radioactivity after 6 hr of intravenous injection in mice intestine; type: ADME, organism-based
Mus musculus [8] = test: Tested for biodistribution of radioactivity after 48 hr of intravenous injection in mice intestine; type: ADME, organism-based
Mus musculus [9] = test: Tested for biodistribution of radioactivity after 48 hr of intravenous injection in mice kidneys; type: ADME, organism-based
Mus musculus [10] = test: Tested for biodistribution of radioactivity after 48 hr of intravenous injection in mice liver; type: ADME, organism-based
Mus musculus [11] = test: Tested for biodistribution of radioactivity after 48 hr of intravenous injection in mice lung; type: ADME, organism-based
Mus musculus [12] = test: Tested for biodistribution of radioactivity after 48 hr of intravenous injection in mice neck; type: ADME, organism-based
Mus musculus [13] = test: Tested for biodistribution of radioactivity after 48 hr of intravenous injection in mice spleen; type: ADME, organism-based
Mus musculus [14] = test: Tested for biodistribution of radioactivity after 6 hr of intravenous injection in mice kidneys; type: ADME, organism-based, Kidney
Mus musculus [15] = test: Tested for biodistribution of radioactivity after 6 hr of intravenous injection in mice liver; type: ADME, organism-based
Mus musculus [16] = test: Tested for biodistribution of radioactivity after 6 hr of intravenous injection in mice lung; type: ADME, organism-based
Mus musculus [17] = test: Tested for biodistribution of radioactivity after 6 hr of intravenous injection in mice neck; type: ADME, organism-based
Mus musculus [18] = test: Tested for biodistribution of radioactivity after 10 min of intravenous injection in mice blood; type: ADME, organism-based
Mus musculus [19] = test: Tested for biodistribution of radioactivity after 10 min of intravenous injection in mice kidneys; type: ADME, organism-based
Mus musculus [20] = test: Tested for biodistribution of radioactivity after 10 min of intravenous injection in mice liver; type: ADME, organism-based
Mus musculus [21] = test: Tested for biodistribution of radioactivity after 10 min of intravenous injection in mice lung; type: ADME, organism-based
Mus musculus [22] = test: Tested for biodistribution of radioactivity after 3h of intravenous injection in mice intestine; type: ADME, organism-based
Mus musculus [23] = test: Tested for biodistribution of radioactivity after 3h of intravenous injection in mice kidneys; type: ADME, organism-based, Kidney
Mus musculus [24] = test: Tested for biodistribution of radioactivity after 3h of intravenous injection in mice lung; type: ADME, organism-based
Mus musculus [25] = test: Tested for biodistribution of radioactivity after 3h of intravenous injection in mice neck; type: ADME, organism-based
Mus musculus [26] = test: Tested for biodistribution of radioactivity after 3h of intravenous injection in mice spleen; type: ADME, organism-based
Mus musculus [27] = test: Tested for biodistribution of radioactivity after 3h of intravenous injection in mice stomach; type: ADME, organism-based
Mus musculus [28] = test: Tested for biodistribution of radioactivity after 10 min of intravenous injection in mice neck; type: ADME, organism-based
Mus musculus [29] = test: Tested for biodistribution of radioactivity after 10 min of intravenous injection in mice spleen; type: ADME, organism-based
Mus musculus [30] = test: Tested for biodistribution of radioactivity after 10 min of intravenous injection in mice stomach; type: ADME, organism-based
Mus musculus [31] = test: Tested for biodistribution of radioactivity after 1 hr of intravenous injection in mice intestine; type: ADME, organism-based
Mus musculus [32] = test: Tested for biodistribution of radioactivity after 1 hr of intravenous injection in mice liver; type: ADME, organism-based
Mus musculus [33] = test: Tested for biodistribution of radioactivity after 1 hr of intravenous injection in mice lung; type: ADME, organism-based
Mus musculus [34] = test: Tested for biodistribution of radioactivity after 6 hr of intravenous injection in mice spleen; type: ADME, organism-based
Mus musculus [35] = test: Tested for biodistribution of radioactivity after 6 hr of intravenous injection in mice stomach; type: ADME, organism-based
Mus musculus [36] = test: Tested for biodistribution of radioactivity after 72 hr of intravenous injection in mice intestine; type: ADME, organism-based
Mus musculus [37] = test: Tested for biodistribution of radioactivity after 72 hr of intravenous injection in mice liver; type: ADME, organism-based
Mus musculus [38] = test: Tested for biodistribution of radioactivity after 72 hr of intravenous injection in mice lung; type: ADME, organism-based
Mus musculus [39] = test: Tested for biodistribution of radioactivity after 72 hr of intravenous injection in mice neck; type: ADME, organism-based
Mus musculus [40] = test: Tested for biodistribution of radioactivity after 72 hr of intravenous injection in mice spleen; type: ADME, organism-based
Mus musculus [41] = test: Tested for biodistribution of radioactivity after 72 hr of intravenous injection in mice stomach; type: ADME, organism-based
Mus musculus [42] = test: Tested for biodistribution of radioactivity after 1 hr of intravenous injection in mice neck; type: ADME, organism-based
Mus musculus [43] = test: Tested for biodistribution of radioactivity after 1 hr of intravenous injection in mice spleen; type: ADME, organism-based
Mus musculus [44] = test: Tested for biodistribution of radioactivity after 1 hr of intravenous injection in mice stomach; type: ADME, organism-based
Mus musculus [45] = test: Tested for biodistribution of radioactivity after 24 hr of intravenous injection in mice feces; type: ADME, organism-based
Mus musculus [46] = test: Tested for biodistribution of radioactivity after 24 hr of intravenous injection in mice intestine; type: ADME, organism-based
Mus musculus [47] = test: Tested for biodistribution of radioactivity after 24 hr of intravenous injection in mice kidneys; type: ADME, organism-based, Kidney
Mus musculus [48] = test: Tested for biodistribution of radioactivity after 24 hr of intravenous injection in mice liver; type: ADME, organism-based
Mus musculus [49] = test: Tested for biodistribution of radioactivity after 24 hr of intravenous injection in mice lung; type: ADME, organism-based
Mus musculus [50] = test: Tested for biodistribution of radioactivity after 24 hr of intravenous injection in mice neck; type: ADME, organism-based
Mus musculus [51] = test: Tested for biodistribution of radioactivity after 24 hr of intravenous injection in mice spleen; type: ADME, organism-based
Mus musculus [52] = test: Tested for biodistribution of radioactivity after 24 hr of intravenous injection in mice stomach; type: ADME, organism-based
Mus musculus [53] = test: Tested for biodistribution of radioactivity after 3h of intravenous injection in mice liver; type: ADME, organism-based
Mus musculus [54] = test: Tested for biodistribution of radioactivity after 1 hr of intravenous injection in mice kidneys; type: ADME, organism-based, Kidney
Mus musculus [55] = test: Tested for biodistribution of radioactivity after 24 hr of intravenous injection in mice urine; type: ADME, organism-based
Mus musculus [56] = test: Tested for biodistribution of radioactivity after 24 hr of intravenous injection in mice blood; type: ADME, organism-based
Mus musculus [57] = test: Tested for biodistribution of radioactivity after 10 min of intravenous injection in mice intestine; type: ADME, organism-based
Mus musculus [58] = test: Tested for biodistribution of radioactivity after 72 hr of intravenous injection in mice kidneys; type: ADME, organism-based

## N[C@@H](CSC1CC(=O)N(CCOC(=O)CNC(=O)c2cccc(I)c2)C1=O)C(=O)O (stereo partly drawn)
Mus musculus [1]
  Dose/g: 29.3%
Mus musculus [2]
  Dose/g: 25.11%
Mus musculus [3]
  Dose/g: 5.78%
Mus musculus [4]
  Dose/g: 20.31%
Mus musculus [5]
  Dose/g: 4.22%
Mus musculus [6]
  Dose/organ: 0.2%
Mus musculus [7]
  Dose/organ: 1.27%
Mus musculus [8]
  Dose/organ: 0.4%
Mus musculus [9]
  Dose/organ: 1.12%
Mus musculus [10]
  Dose/organ: 1.53%
Mus musculus [11]
  Dose/organ: 1.98%
Mus musculus [12]
  Dose/organ: 0.16%
Mus musculus [13]
  Dose/organ: 0.92%
Mus musculus [14]
  Dose/organ: 4.45%
Mus musculus [15]
  Dose/organ: 5.39%
Mus musculus [16]
  Dose/organ: 7.6%
Mus musculus [17]
  Dose/organ: 0.45%
Mus musculus [18]
  Dose/organ: 33.64%
Mus musculus [19]
  Dose/organ: 6.08%
Mus musculus [20]
  Dose/organ: 9.81%
Mus musculus [21]
  Dose/organ: 10.37%
Mus musculus [22]
  Dose/organ: 1.93%
Mus musculus [23]
  Dose/organ: 5%
Mus musculus [24]
  Dose/organ: 8.06%
Mus musculus [25]
  Dose/organ: 0.51%
Mus musculus [26]
  Dose/organ: 3.67%
Mus musculus [27]
  Dose/organ: 1.04%
Mus musculus [28]
  Dose/organ: 0.34%
Mus musculus [29]
  Dose/organ: 7.15%
Mus musculus [30]
  Dose/organ: 0.54%
Mus musculus [31]
  Dose/organ: 1.96%
Mus musculus [32]
  Dose/organ: 8.51%
Mus musculus [33]
  Dose/organ: 7.08%
Mus musculus [34]
  Dose/organ: 3.19%
Mus musculus [35]
  Dose/organ: 0.84%
Mus musculus [36]
  Dose/organ: 0.28%
Mus musculus [37]
  Dose/organ: 1.05%
Mus musculus [38]
  Dose/organ: 1.52%
Mus musculus [39]
  Dose/organ: 0.09%
Mus musculus [40]
  Dose/organ: 0.49%
Mus musculus [41]
  Dose/organ: 0.14%
Mus musculus [42]
  Dose/organ: 0.75%
Mus musculus [43]
  Dose/organ: 4.84%
Mus musculus [44]
  Dose/organ: 0.92%
Mus musculus [45]
  Dose/organ: 0.89%
Mus musculus [46]
  Dose/organ: 0.67%
Mus musculus [47]
  Dose/organ: 2.08%
Mus musculus [48]
  Dose/organ: 2.46%
Mus musculus [49]
  Dose/organ: 4.06%
Mus musculus [50]
  Dose/organ: 0.32%
Mus musculus [51]
  Dose/organ: 1.41%
Mus musculus [52]
  Dose/organ: 0.28%
Mus musculus [53]
  Dose/organ: 6.43%
Mus musculus [54]
  Dose/organ: 5.35%
Mus musculus [55]
  Dose/organ: 23.39%
Mus musculus [56]
  Dose/g: 9.64%
Mus musculus [57]
  Dose/organ: 0.8%
Mus musculus [58]
  Dose/organ: 0.82%
